# Measured values from ChEMBL document CHEMBL1201862, “PubChem BioAssay data set” (2004).
# Active and inactive are the calls of the source.
# Experiments:
# Streptococcus = test: GAS UMAA2166 growth inhibition – luminescence, BacTiterGlo, counter-screen for streptokinase expression inhibitor project, dose response (AID 1915); format: functional, organism-based;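 also: potency for reduction of bacterial viability or growth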
# [1] = test system: Streptococcus sp. 'group A'; test: Streptococcus pyogenes SK(-)GAS viability under kanamycin – luminescence, BacTiterGlo, confirmation, counter-screen for streptokinase expression inhibitor project, dose response (AID 1900); format: functional, organism-based
# Streptokinase A = target: T1, Streptokinase A (Streptococcus pyogenes serotype M1, UniProt P10520); test: viability-normalized secreted streptokinase activity reduction – plasminogen activation absorbance, OD405, dose response (AID 1914); format: functional, Streptococcus pyogenes M1 GAS;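 also: secreted streptokinase activity via plasminogen activation per viability signal from cell pellet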
# T1 sequence (P10520 whole entry): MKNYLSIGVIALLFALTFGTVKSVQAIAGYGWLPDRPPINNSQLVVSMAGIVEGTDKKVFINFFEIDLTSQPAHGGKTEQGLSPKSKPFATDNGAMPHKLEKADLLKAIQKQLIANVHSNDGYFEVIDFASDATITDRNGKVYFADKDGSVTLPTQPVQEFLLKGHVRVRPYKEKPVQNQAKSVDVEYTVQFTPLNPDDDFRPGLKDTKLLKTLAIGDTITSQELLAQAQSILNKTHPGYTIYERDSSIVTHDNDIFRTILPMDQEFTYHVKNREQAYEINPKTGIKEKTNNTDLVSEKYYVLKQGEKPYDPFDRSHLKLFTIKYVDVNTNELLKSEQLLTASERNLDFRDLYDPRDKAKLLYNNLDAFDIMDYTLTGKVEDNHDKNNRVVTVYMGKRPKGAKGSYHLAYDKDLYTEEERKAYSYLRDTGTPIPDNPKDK
# [2] = THP-1 cell cytotoxicity, dose response, cytotoxicity control for non-replicating M. tuberculosis project (AID 489025); format: functional
# cells = format: functional
# Estrogen receptor = target: T2, Estrogen receptor (Homo sapiens, UniProt P03372);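 also: potency for inhibiting coactivator peptide recruitment to the receptor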
# T2 sequence (P03372 whole entry): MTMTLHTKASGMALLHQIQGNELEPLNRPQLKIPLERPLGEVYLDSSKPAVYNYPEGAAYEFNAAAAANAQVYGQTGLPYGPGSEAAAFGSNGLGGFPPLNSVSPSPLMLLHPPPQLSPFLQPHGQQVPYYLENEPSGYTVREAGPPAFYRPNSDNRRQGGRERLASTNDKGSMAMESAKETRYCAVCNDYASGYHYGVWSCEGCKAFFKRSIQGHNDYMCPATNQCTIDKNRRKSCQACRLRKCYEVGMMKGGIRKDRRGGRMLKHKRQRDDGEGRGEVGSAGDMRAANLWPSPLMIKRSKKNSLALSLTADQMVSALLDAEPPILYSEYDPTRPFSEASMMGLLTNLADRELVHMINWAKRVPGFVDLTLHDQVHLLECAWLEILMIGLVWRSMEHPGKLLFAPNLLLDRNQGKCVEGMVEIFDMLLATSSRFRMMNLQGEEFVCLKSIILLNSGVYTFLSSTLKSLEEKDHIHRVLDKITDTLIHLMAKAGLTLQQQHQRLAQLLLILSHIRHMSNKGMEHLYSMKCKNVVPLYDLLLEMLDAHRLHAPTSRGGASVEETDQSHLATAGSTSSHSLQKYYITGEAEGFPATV
# Large T antigen = Large T antigen (Simian virus 40, UniProt P03070); format: functional, Betapolyomavirus macacae;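 also: Confirmatory-stage PubChem screen for compounds that inhibit SV40 T antigen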
# [3] = target: FAD-linked sulfhydryl oxidase ALR (Homo sapiens, UniProt P55789); test: ALR-catalysed DTT oxidation blockers – biochemical, H2O2 detection, luminescence, cherry-pick, dose response (AID 493248)
# [4] = OVCAR-3 cell viability loss – plate reader, dry powder samples, PAX8 inhibitor project, dose response (AID 743044); format: functional, cell-based
# Paired box protein Pax-8 = Paired box protein Pax-8 (Homo sapiens, UniProt Q06710); test: PAX8 transcriptional activity inhibition in RMG-I – RMG-I cells, luciferase, cherry-pick, dose response (AID 687027); format: functional, cell-based;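 also: luciferase reporter driven by Pax8 target thyroperoxidase promoter measured by SteadyGlo luminescence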
# [5] = Vero E6 cell cytotoxicity, dose response, cytotoxicity control for non-replicating M. tuberculosis project, secondary assay (AID 492998); format: functional, VeroE6; details: Vero C1008
# [6] = Luminescence Cell-Based Dose Confirmation HTS to Identify Activators of 5'UTR Stem-Loop Driven Alpha-Synuclein mRNA Translation in H4 Neuroglioblastoma Cells. [Related pubchem assays: 1829 (Project Summary), 1814 (Primary HTS)]; format: functional
# [7] = Luminescence Cell-Based Dose Response HTS to Identify Activators of Luciferase Translation or Activity in H4 […] Cells. [Related pubchem assays: 1829 (Project Summary), 1814 (Primary HTS)]; format: functional
# H4 = test: Luminescence Cell-Based Dose Response HTS to Identify Activators of 5'UTR Stem-Loop Driven Prion Protein mRNA Translation in H4 Neuroglioblastoma Cells. [Related pubchem assays: 1829 (Project Summary), 1814 (Primary HTS)]; format: functional; details: Homo sapiens
# [8] = target: Glyceraldehyde-3-phosphate dehydrogenase (Homo sapiens, UniProt P04406)
# [9] = P. falciparum Dd2 growth inhibitors, dose response, SYBR Green, cherry-picked samples (AID 1159567); format: functional, cell-based
# Genome polyprotein = Genome polyprotein (dengue virus type 2, UniProt P29990); test: flavivirus cap methylation enzyme inhibition – biochemical, confirmation dose response, primary screen (AID 588689); format: functional
# SN12K1 = test: cells; format: functional; details: Homo sapiens
# [10] = target: T3, RNA-binding protein pos-1 (Caenorhabditis elegans, UniProt G5EF15); test: disruptors of C. elegans POS-1 RNA interaction – biochemical, fluorescence polarization, dose response (AID 1964);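 also: purified POS-1 fused to maltose binding protein made in E. coli; potency of compounds blocking POS-1 binding to fluorescent RNA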
# T3 sequence (G5EF15 whole entry): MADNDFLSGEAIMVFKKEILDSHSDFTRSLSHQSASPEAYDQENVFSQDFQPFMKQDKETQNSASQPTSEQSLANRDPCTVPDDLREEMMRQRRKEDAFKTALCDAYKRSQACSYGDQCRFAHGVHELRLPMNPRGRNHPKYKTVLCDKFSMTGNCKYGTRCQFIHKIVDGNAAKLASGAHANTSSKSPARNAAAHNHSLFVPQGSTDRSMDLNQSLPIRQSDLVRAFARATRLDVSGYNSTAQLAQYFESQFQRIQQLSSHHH
# [11] = target: T4, Polyadenylate-binding protein 1 (Homo sapiens, UniProt P11940); test: MLLE binding blockers, Cy5 peptide tracer – biochemical, fluorescence polarization, Cy5-PAM2 peptide, secondary, miRNA deadenylation inhibitor project, dose response (AID 602260); format: functional; details: read-out: IC50_Mean
# [12] = target: T5, Zinc finger protein mex-5 (Caenorhabditis elegans, UniProt Q9XUB2); test: potency of MEX-5 RNA-binding blockers – biochemical, C. elegans, fluorescence polarization, dose response (AID 1960)
# T5 sequence (Q9XUB2 whole entry): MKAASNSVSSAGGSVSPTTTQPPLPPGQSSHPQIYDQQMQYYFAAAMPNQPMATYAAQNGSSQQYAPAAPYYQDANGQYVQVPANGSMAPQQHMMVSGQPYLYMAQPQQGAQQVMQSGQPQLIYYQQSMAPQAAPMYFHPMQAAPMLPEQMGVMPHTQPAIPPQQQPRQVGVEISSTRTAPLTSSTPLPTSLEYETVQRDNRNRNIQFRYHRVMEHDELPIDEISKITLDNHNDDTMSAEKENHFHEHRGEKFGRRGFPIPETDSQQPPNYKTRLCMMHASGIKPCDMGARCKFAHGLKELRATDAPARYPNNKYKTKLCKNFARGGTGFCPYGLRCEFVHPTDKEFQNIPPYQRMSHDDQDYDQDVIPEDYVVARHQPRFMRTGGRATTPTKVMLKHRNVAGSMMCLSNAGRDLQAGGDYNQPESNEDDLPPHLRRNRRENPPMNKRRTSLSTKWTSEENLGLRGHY
# [13] = target: T4, Polyadenylate-binding protein 1; test: MLLE domain peptide-binding blockers, IC50 – biochemical, fluorescence polarization, FITC-PAM2 peptide, dose response (AID 602259); format: functional; details: read-out: IC50_Mean
# [14] = microbe, parasite or virus in culture; format: functional; details: Mycobacterium tuberculosis
# Sequence of Genome polyprotein (P29990 2492-3391 limits assumed): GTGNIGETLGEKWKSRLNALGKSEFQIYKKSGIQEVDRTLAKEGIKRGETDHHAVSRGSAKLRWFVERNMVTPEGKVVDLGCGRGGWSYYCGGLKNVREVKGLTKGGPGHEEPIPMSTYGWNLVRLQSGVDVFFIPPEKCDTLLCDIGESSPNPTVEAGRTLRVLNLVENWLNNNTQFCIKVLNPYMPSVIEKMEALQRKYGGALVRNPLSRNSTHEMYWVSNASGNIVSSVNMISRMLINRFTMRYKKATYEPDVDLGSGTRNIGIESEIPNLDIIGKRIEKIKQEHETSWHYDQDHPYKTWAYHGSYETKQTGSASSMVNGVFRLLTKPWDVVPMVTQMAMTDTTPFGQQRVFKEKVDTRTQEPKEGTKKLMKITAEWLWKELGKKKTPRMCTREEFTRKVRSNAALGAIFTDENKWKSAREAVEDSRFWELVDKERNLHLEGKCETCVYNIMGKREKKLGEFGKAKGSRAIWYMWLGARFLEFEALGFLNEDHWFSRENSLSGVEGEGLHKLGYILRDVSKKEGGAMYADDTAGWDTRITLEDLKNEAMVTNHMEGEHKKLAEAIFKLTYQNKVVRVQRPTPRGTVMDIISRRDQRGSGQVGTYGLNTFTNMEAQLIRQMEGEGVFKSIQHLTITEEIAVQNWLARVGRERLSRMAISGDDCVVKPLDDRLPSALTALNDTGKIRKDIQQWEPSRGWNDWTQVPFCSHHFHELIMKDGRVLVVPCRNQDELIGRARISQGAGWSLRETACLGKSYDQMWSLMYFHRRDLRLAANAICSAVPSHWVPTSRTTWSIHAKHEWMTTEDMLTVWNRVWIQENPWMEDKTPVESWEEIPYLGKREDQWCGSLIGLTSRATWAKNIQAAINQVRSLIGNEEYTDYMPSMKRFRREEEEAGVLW
# Sequence of Large T antigen (P03070 whole entry): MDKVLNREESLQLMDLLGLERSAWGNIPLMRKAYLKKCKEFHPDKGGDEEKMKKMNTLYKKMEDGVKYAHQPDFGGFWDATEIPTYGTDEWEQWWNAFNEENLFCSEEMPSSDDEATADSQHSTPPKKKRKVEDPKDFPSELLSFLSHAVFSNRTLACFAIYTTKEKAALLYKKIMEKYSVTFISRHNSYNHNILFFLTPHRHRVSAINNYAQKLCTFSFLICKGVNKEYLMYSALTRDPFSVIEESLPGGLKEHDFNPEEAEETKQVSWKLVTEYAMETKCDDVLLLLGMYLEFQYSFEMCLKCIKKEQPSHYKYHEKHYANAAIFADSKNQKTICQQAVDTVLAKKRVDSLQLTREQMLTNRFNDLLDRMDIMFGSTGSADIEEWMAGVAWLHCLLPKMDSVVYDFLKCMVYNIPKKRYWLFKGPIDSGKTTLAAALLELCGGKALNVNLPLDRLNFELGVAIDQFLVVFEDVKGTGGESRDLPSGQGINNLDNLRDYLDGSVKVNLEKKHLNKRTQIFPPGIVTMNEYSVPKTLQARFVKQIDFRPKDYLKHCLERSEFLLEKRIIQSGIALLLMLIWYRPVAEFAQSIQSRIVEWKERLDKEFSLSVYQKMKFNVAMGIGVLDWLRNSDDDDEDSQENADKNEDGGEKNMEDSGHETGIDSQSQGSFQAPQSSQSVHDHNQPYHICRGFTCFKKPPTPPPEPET
# Sequence of Glyceraldehyde-3-phosphate dehydrogenase (P04406 whole entry): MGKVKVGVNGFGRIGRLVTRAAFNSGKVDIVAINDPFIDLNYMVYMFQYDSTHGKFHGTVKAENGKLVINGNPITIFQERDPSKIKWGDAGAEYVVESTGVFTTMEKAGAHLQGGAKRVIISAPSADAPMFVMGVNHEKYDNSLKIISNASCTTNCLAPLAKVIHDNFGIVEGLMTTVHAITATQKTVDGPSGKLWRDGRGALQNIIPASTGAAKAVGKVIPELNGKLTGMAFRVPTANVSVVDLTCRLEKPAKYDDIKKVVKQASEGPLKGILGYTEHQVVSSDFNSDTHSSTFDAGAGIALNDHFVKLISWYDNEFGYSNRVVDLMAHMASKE
# T4 sequence (P11940 whole entry): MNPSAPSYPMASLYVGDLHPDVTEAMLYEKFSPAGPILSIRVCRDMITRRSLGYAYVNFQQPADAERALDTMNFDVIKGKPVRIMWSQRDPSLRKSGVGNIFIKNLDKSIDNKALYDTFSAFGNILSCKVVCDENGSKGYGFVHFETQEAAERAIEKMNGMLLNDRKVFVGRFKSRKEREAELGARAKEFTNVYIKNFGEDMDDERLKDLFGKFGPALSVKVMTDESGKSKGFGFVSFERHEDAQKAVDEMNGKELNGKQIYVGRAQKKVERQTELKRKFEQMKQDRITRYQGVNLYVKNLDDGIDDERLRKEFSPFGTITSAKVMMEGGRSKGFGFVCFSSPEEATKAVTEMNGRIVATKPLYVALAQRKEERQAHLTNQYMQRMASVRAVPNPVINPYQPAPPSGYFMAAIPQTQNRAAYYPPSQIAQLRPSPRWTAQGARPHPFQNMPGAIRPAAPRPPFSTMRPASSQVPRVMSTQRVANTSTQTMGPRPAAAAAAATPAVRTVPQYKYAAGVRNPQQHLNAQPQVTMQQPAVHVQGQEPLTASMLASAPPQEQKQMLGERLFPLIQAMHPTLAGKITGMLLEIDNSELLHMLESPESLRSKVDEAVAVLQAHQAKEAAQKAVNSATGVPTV
# Sequence of Paired box protein Pax-8 (Q06710 whole entry): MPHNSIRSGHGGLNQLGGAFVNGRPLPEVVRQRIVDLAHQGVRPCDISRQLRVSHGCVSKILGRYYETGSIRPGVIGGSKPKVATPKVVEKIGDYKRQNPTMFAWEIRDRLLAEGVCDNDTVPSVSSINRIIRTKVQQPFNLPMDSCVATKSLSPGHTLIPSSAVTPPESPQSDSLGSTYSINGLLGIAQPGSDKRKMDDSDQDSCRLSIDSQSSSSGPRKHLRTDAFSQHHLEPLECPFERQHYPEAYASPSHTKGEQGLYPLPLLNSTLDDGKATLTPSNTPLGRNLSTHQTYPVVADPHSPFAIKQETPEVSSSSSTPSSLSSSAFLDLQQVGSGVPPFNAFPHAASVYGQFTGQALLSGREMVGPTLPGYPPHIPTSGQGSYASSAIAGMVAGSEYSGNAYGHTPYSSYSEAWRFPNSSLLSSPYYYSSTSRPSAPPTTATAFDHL
# Sequence of FAD-linked sulfhydryl oxidase ALR (P55789 whole entry): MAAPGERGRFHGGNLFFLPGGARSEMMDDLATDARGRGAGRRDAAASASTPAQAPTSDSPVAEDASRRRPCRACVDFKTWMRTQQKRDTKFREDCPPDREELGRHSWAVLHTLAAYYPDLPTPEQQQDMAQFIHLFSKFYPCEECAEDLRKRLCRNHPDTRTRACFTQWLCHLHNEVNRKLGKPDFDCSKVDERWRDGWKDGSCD
structure (smiles),measurement,setting,value
COc1ccc2cc(C(=O)C3CCCN(Cc4cccc(C)n4)C3)ccc2c1 (stereo not drawn),EC50,Streptococcus,> 150 µM (not active)
same,EC50,[1],11.1 µM (active)
same,EC50,Streptokinase A,> 150 µM (not active)
same,CC50,[2],> 40 µM (active)
same,IC50,cells,3 µM (active)
CSCCC1NC(=O)NC1=O (stereo not drawn),IC50,Estrogen receptor,> 50 µM (not active)
Cc1ccc(S(=O)(=O)N2CCN(CC(=O)N/N=C\c3ccc(O)c(O)c3)CC2)cc1,IC50,Large T antigen,9.98 µM (active)
same,AC50,[3],2.26 µM (active)
O=C(C[C@@H]1CC[C@@H]2[C@H](COC[C@@H](O)CN2S(=O)(=O)c2cccc(Cl)c2)O1)Nc1ccc(-c2ccccc2)cc1,AC50,[4],18.9 µM (active)
same,AC50,Paired box protein Pax-8,9.62 µM (active)
O=C(c1ccc(-c2ccc([N+](=O)[O-])cc2)o1)N1CCCCCCC1,CC50,[5],9.37 µM (active)
same,CC50,[2],9 µM (active)
same,IC50,cells,12.7 µM (active)
Cc1cccn2c(CN(C)CCC3CCCCO3)c(C(=O)N3CCCCC3)nc12 (stereo not drawn),EC50,[6],19.9 µM (active)
same,EC50,[7],> 120 µM (not active)
same,EC50,H4,> 120 µM (not active)
COC(=O)C1=C(O)/C(=C\c2ccc(CNC(=O)C(=O)Nc3ccc(C)c(C)c3)o2)N=C1C,IC50,Estrogen receptor,19.6 µM (active)
CCOC(=O)c1ccsc1NC(=O)CCS(=O)(=O)c1ccccc1,CC50,[5],> 20 µM (active)
same,CC50,[2],34.5 µM (active)
COc1cccc(N2C(=O)C(Cl)=C(N3CCN(c4ncccn4)CC3)C2=O)c1,IC50,[8],> 50 µM (inconclusive)
O=C(O)c1cc(S(=O)(=O)O)cc(Nc2c3ccccc3nc3ccccc23)c1O,IC50,Large T antigen,20.2 µM (active)
CCN(CC)c1ccc(NC(=O)c2ccccc2F)cc1,IC50,Large T antigen,18.8 µM (active)
Cc1cc(O)nc(-n2nc(C)cc2C)n1,CC50,[5],> 20 µM (active)
same,CC50,[2],> 40 µM (active)
same,IC50,cells,3.82 µM (active)
COc1cc2cc(C(c3nnnn3C3CCCC3)N3CCc4ccccc43)c(=O)[nH]c2cc1OC (stereo not drawn),IC50,Estrogen receptor,21.9 µM (active)
COC(=O)c1ccc(/N=C/c2c(-c3ccccc3)n[nH]c2O)cc1,EC50,[6],> 120 µM (not active)
same,EC50,[7],> 120 µM (not active)
same,EC50,H4,> 120 µM (not active)
COc1cc(/C=c2\sc3nc(-c4ccncc4)nn3c2=O)ccc1OC(C)=O,IC50,Estrogen receptor,31.7 µM (not active)
Cc1ccccc1S(=O)(=O)N(C)C[C@H]1OCc2ccccc2-c2ccccc2C(=O)N([C@@H](C)CO)C[C@H]1C,AC50,[9],20.9 µM (active)
Cn1c(=O)c2c(nc(NCC3CCCC(CN)C3)n2Cc2ccc(Cl)cc2Cl)n(C)c1=O (stereo not drawn),EC50,[6],> 120 µM (not active)
same,EC50,[7],> 120 µM (not active)
same,EC50,H4,> 120 µM (not active)
O=[N+]([O-])c1ccc(Sc2n[nH]c(-c3ccccc3)n2)nc1,EC50,[6],5.81 µM (active)
same,EC50,[7],93.9 µM (active)
same,EC50,H4,> 120 µM (not active)
COc1ccc2nc(NC3=NCCC3)sc2c1,EC50,[6],37.7 µM (active)
same,EC50,[7],22.1 µM (active)
same,EC50,H4,8.52 µM (active)
CC1(C)CC(=O)C(C(c2ccc(Br)cc2)C2C(=O)CC(C)(C)CC2=O)C(=O)C1,IC50,Genome polyprotein,79.3 µM (active)
CN(C)CCNC(=O)c1cc([N+](=O)[O-])cc2ccc(-c3ccccc3)nc12,GI50,SN12K1,3.04 µM (inactive)
Fc1ccc(NCc2cccnc2)cc1F,EC50,[10],15.4 µM (active)
same,IC50,[11],> 66 µM (inactive)
same,EC50,[12],11.2 µM (active)
same,IC50,Estrogen receptor,> 50 µM (not active)
same,IC50,[13],49.1 µM (inactive)
COc1ccc(N2CCN(C3=C(Cl)C(=O)N(c4cccc(C(F)(F)F)c4)C3=O)CC2)cc1,IC50,[8],> 50 µM (inconclusive)
COc1ccccc1-c1cc(C(=O)Nc2sc3c(c2C#N)CCC(C)C3)c2ccccc2n1 (stereo not drawn),IC50,Genome polyprotein,97.8 µM (active)
Cn1cnc([N+](=O)[O-])c1Sc1ccc(Br)cc1,CC50,[5],> 20 µM (active)
same,CC50,[14],32.4 µM (active)
same,CC50,[2],34.4 µM (active)
same,IC50,cells,11.5 µM (active)
N#Cc1cccc(-c2ccc3c(c2)[C@H]2[C@H](CCN2C(=O)c2ccncc2)[C@H](CO)N3)c1,AC50,[9],7.86 µM (active)
CC12CN3CC(C)(CN(C1)C3c1ccc([N+](=O)[O-])o1)C2 (stereo not drawn),IC50,cells,11.1 µM (active)
C=CCOc1c(Br)cc(/C=C2/C(=O)ON=C2C)cc1OC,IC50,Genome polyprotein,> 100 µM (active)
Cc1ccc(CCC(=O)Nc2cc(Cl)ccc2Cl)o1,IC50,cells,42.8 µM (active)
Cc1ccc(NC(=O)C2OCCc3ccccc32)cc1 (stereo not drawn),EC50,[6],14.7 µM (active)
same,EC50,[7],12 µM (active)
same,EC50,H4,31.4 µM (active)
O=C(COn1nnc2ccccc21)NCC1CCCCC1,EC50,[6],5.83 µM (active)
same,EC50,[7],68.8 µM (active)
same,EC50,H4,31.9 µM (inconclusive)
